Data on 3 compounds can be found in patent US20120148547A1, “COMBINATION OF VITAMIN E AND BETA-GLYCOSPHINGOLIPIDS IN COMPOSITIONS AND METHODS FOR PREVENTING AND TREATING HEPATIC DISORDERS” (Hadasit Medical Reasearch Services & Development Ltd., priority 2009, published 2012).

Assay [1] has as its system acetaminophen-induced liver injury. The assay can be described thus: Acetaminophen-induced liver injury in mice treated with GC and vitamins, serum ALT and AST (Example 2). It is filed as in vivo, Male C57B1/6 mice. Particulars: 24 hr after acetaminophen; vitamins by gavage, with or without 100 μg GC two hours before acetaminophen. The procedure:
Male C57B1/6 mice (11-12 weeks old) were obtained from Harlan Laboratories (Jerusalem, Israel) and maintained in the Animal Core of the Hadassah-Hebrew University Medical School. β-glucosylceramide (GC) was purchased from Avanti Polar Lipids (Alabaster, Ala., USA). […] Acetaminophen Sigma (cat. # A7085), was dissolved in a mixture of 30% Cremophor EL (Sigma, Rehovot, Israel) and ethanol (1:1) in DDW (Di distilled water). Mice were tested for serum Alanine transaminase (ALT) and Aspartate aminotransferase (AST) at 24 hours after acetaminophen administration. Serum AST and ALT levels were measured by an automatic analyzer. Mice of all groups (eight per group) were fasted for eight hours before oral administration of acetaminophen and for additional four hours after administration. […] Animals were sacrificed after 24 hours, and liver damage was assessed in all groups by examining serum levels of ALT, AST, GSH and TNF-α.

For the next assay, the system named is hepatic NKT cells. The assay can be described thus: Flow cytometry of hepatic NKT lymphocytes (CD3+NK1.1+) after acetaminophen. It is filed as in vivo, mice. Particulars: pretreatment before acetaminophen. The procedure:
For intrahepatic lymphocytes, livers were first crushed through a stainless mesh (size 60, Sigma) and cell suspension was placed in a 50-mL tube for 5 min to pellet the cell debris. Ten milliliters of Lymphoprep (Ficoll, Axis-Shield PoC AS, Oslo, Norway) was slowly placed under the same volume of cell suspension in 50-mL tubes. The tubes were then centrifuged at 1800 rpm for 18 min. Cells at the interface were collected and transferred to new tubes, which were then centrifuged at 1800 rpm for 10 min, to obtain a cell pellet depleted of hepatocytes in a final volume of 250 μl. Approximately 1×10^6 cells/mouse liver were recovered.
Flow cytometry was performed following lymphocyte isolation using 1×10^6 lymphocytes in 100 μl PBS. […] Pacigic Blue anti mouse CD4, FITC-anti mouse CD8 subsets were also used ((eBioscience, USA). For intracellular staining we used PE-anti mouse CD25 and PE-Cy7 anti mouse FOXp3 (eBioscience, USA). Cells were incubated for 30 min at 4° C. in the dark, and washed and resuspended in 200 μl PBS. Analytical cell sorting was performed on 1×10^4 cells from each group using a fluorescence-activated cell sorter (FACSTAR plus, Becton Dickinson). Only live cells were counted and unstained cells served as controls for background fluorescence. Gates were set on forward- and side-scatters to exclude dead cells and red blood cells. […]
(In general: Flow cytometry measures light scatter and fluorescence of single cells or particles in a stream.)

Assay [2] deals with acetaminophen-induced liver injury. The assay can be described thus: Acetaminophen-induced liver injury in mice treated with GC, serum ALT and AST (Example 1). It is filed as in vivo, Male C57B1/6 mice. Also on record: ALT levels: unit not given here. Particulars: for ALT levels: p<0.001; for AST levels: control group A 6634, p<0.04. The procedure:
Male C57B1/6 mice (11-12 weeks old) were obtained from Harlan Laboratories (Jerusalem, Israel) and maintained in the Animal Core of the Hadassah-Hebrew University Medical School. β-glucosylceramide (GC) was purchased from Avanti Polar Lipids (Alabaster, Ala., USA). Glycolipids (3.3 mg/ml) were dissolved in a mixture of 30% Cremophor EL (Sigma, Rehovot, Israel) and ethanol (1:1, C:E) in PBS. Acetaminophen Sigma (cat. # A7085), was dissolved in a mixture of 30% Cremophor EL (Sigma, Rehovot, Israel) and ethanol (1:1) in DDW (Di distilled water). […] Serum AST and ALT levels were measured by an automatic analyzer. Beta glycolipides were previously shown by the present inventors as having immunomodulatory effects. […] The inventors therefore next examined whether such effect may also enhance the glutathione system and thereby ameliorate hepatic injury induced by drugs such as acetaminophen. The effect of GC on acetaminophen-induced liver injury was evaluated by examination of liver enzyme (ALT and AST). Three groups of mice, 15 animals per group, were studied. Mice of all groups were fasted for eight hours before oral administration of acetaminophen and for additional four hours after administration. Mice in all groups were administered orally (PO) with 10 mg/330 μl acetaminophen (in C:E gavage administration). In addition, mice were administered with 100 μg β-glucosylceramide (β-GC, in 30 μl of C:E) two hours before administration of acetaminophen (Group B) and every two hours after acetaminophen administration (Group C), Mice in control group A were treated only with oral PBS.

With `Cc1c(C)c2c(c(C)c1O)CC[C@@](C)(CCC[C@H](C)CCC[C@H](C)CCCC(C)C)O2` [vitamin E, α-Tocopherol], the “effect on ALT levels (FIG. 4)” value in assay [1] was “negligible effect”. In the assay on hepatic NKT cells, the “change in hepatic NKT cells” value is recorded as “became significant”.

As for `O=C1O[C@H]([C@@H](O)CO)C(O)=C1O` [vitamin C, L-Ascorbic acid], the “effect on ALT levels (FIG. 4)” value in assay [1] is on record as “negligible effect”.

Turning to β-glucosylceramide [GC], the ALT levels in assay [2] (12 hr after acetaminophen 10 mg PO, 100 μg GC every two hours after acetaminophen (Group C), control group A 505) amounted to 364; in assay [2] (12 hr after acetaminophen 10 mg PO, 100 μg GC two hours before acetaminophen (Group B), control group A 505), 332; in assay [2] (24 hr after acetaminophen, GC every two hours after acetaminophen (Group C), control group A 12150), 5034; in assay [2] (24 hr after acetaminophen, GC two hours before acetaminophen (Group B), control group A 12150), 5222. The AST levels in assay [2] (24 hr after acetaminophen, GC every two hours after acetaminophen (Group C)) is recorded as 4029; in assay [2] (24 hr after acetaminophen, GC two hours before acetaminophen (Group B)), 3650. Besides, the “change in hepatic NKT cells” value in the assay on hepatic NKT cells is “small increase”.
